Tested on: subjects with AK on the face or scalp
Test: Phase 2a study KX01-AK-002: local skin reactions (grade 0 not present to 4 worst) and adverse events, 0.5 mg KX-01 on 25 cm^2
Format: in vivo, human
Description: An ongoing Phase 2a, open-label, multicenter, activity and safety study of KX-01 administered topically in subjects with AK on the face or scalp is described herein. […] Secondary objectives are to assess the activity of KX-01 administered topically during Days 1-57 based on reduction of AK lesion counts from baseline, assess the safety and tolerability and pharmacokinetics, and contrast the dose regimens (5-day treatment with 3-day treatment) in terms of activity and safety in subjects with AK on the face or scalp. This uncontrolled, nonrandomized trial is being conducted at 16 investigational sites in the United States. Enrollment is sequential for 2 cohorts of approximately 80 subjects each. Enrollment is closed for Cohort 1 and ongoing for Cohort 2. The two treatment cohorts are summarized below: • Cohort 1: 0.5 mg KX-01 administered topically to a contiguous treatment area of 25 cm^2 with 4-8 clinically typical AK lesions for 5 consecutive days • Cohort 2: 0.5 mg KX-01 administered topically to a contiguous treatment area of 25 cm^2 with 4-8 clinically typical AK lesions for 3 consecutive days
0.5 mg KX-01 is administered topically to an area of 25 cm^2 on the face or scalp by site staff on treatment days. […] AK lesion counts are recorded at baseline, days 8, 15, 29, and 57. […] Standardized photography of treatment area is performed at baseline, day 8 and day 57. Plasma samples are being collected at preplanned time points on days 1 and 5 for Cohort 1, and on days 1 and 3 for Cohort 2.
Absence or presence of hyperpigmentation, hypopigmentation and scarring are also assessed. Application site reactions not classified as LSRs are reported as AEs. […] LSRs and AEs are reported separately. All LSRs, pigmentation, and scarring in the treatment area will be followed to resolution or stabilization.
The range of possible composite scores is 0-24.
The Phase 2a trial described in Example 2a was completed with 84 eligible subjects enrolled in each of two cohorts: one cohort was subjected to the treatment for 5 consecutive days, and the other cohort was subjected to the treatment for 3 consecutive days. The results are described below and in FIG. 5.

`O=C(Cc1ccc(-c2ccc(OCCN3CCOCC3)cc2)cn1)NCc1ccccc1` [KX-01] was tested, and the “Crusting maximal post-baseline grade 0, subjects (%)” value (3-day, N = 84) was 58 (69%), the “Crusting maximal post-baseline grade 1, subjects (%)” value (3-day, N = 84) was 16 (19%) and the “Crusting maximal post-baseline grade 2, subjects (%)” value (3-day, N = 84) was 9 (11%). For the same compound, the “Crusting maximal post-baseline grade 3, subjects (%)” value (3-day, N = 84) was 1 (1%), the “Crusting maximal post-baseline grade 4, subjects (%)” value (3-day, N = 84) was 0 (0%) and the “Erosion/Ulceration maximal post-baseline grade 0, subjects (%)” value (3-day, N = 84) was 79 (94%). The “Erosion/Ulceration maximal post-baseline grade 1, subjects (%)” value (3-day, N = 84) was 5 (6%), the “Erosion/Ulceration maximal post-baseline grade 2, subjects (%)” value (3-day, N = 84) was 0 (0%) and the “Erosion/Ulceration maximal post-baseline grade 3, subjects (%)” value (3-day, N = 84) was 0 (0%). The “Erosion/Ulceration maximal post-baseline grade 4, subjects (%)” value (3-day, N = 84) was 0 (0%), the “Erythema maximal post-baseline grade 0, subjects (%)” value (3-day, N = 84) was 30 (36%) and the “Erythema maximal post-baseline grade 1, subjects (%)” value (3-day, N = 84) was 22 (26%). The “Erythema maximal post-baseline grade 2, subjects (%)” value (3-day, N = 84) was 26 (31%), the “Erythema maximal post-baseline grade 3, subjects (%)” value (3-day, N = 84) was 6 (7%) and the “Erythema maximal post-baseline grade 4, subjects (%)” value (3-day, N = 84) was 0 (0%). The “Flaking/Scaling maximal post-baseline grade 0, subjects (%)” value (3-day, N = 84) was 39 (46%), the “Flaking/Scaling maximal post-baseline grade 1, subjects (%)” value (3-day, N = 84) was 18 (21%) and the “Flaking/Scaling maximal post-baseline grade 2, subjects (%)” value (3-day, N = 84) was 19 (23%). The “Flaking/Scaling maximal post-baseline grade 3, subjects (%)” value (3-day, N = 84) was 8 (10%), the “Flaking/Scaling maximal post-baseline grade 4, subjects (%)” value (3-day, N = 84) was 0 (0%) and the “Swelling maximal post-baseline grade 0, subjects (%)” value (3-day, N = 84) was 76 (90%). The “Swelling maximal post-baseline grade 1, subjects (%)” value (3-day, N = 84) was 8 (10%), the “Swelling maximal post-baseline grade 2, subjects (%)” value (3-day, N = 84) was 0 (0%) and the “Swelling maximal post-baseline grade 3, subjects (%)” value (3-day, N = 84) was 0 (0%). The “Swelling maximal post-baseline grade 4, subjects (%)” value (3-day, N = 84) was 0 (0%), the “Vesiculation/Pustulation maximal post-baseline grade 0, subjects (%)” value (3-day, N = 84) was 83 (99%) and the “Vesiculation/Pustulation maximal post-baseline grade 1, subjects (%)” value (3-day, N = 84) was 0 (0%). For the same compound, the “Vesiculation/Pustulation maximal post-baseline grade 2, subjects (%)” value (3-day, N = 84) was 1 (1%), the “Vesiculation/Pustulation maximal post-baseline grade 3, subjects (%)” value (3-day, N = 84) was 0 (0%) and the “Vesiculation/Pustulation maximal post-baseline grade 4, subjects (%)” value (3-day, N = 84) was 0 (0%). For the same compound, the “Local safety profile compared to Picato” value (5-day treatment, cross-study) was “more benign local safety profile”, the “Crusting maximal post-baseline grade 0, subjects (%)” value (5-day, N = 84) was 51 (61%) and the “Crusting maximal post-baseline grade 1, subjects (%)” value (5-day, N = 84) was 25 (30%). The “Crusting maximal post-baseline grade 2, subjects (%)” value (5-day, N = 84) was 8 (10%), the “Crusting maximal post-baseline grade 3, subjects (%)” value (5-day, N = 84) was 0 (0%) and the “Crusting maximal post-baseline grade 4, subjects (%)” value (5-day, N = 84) was 0 (0%). The “Erosion/Ulceration maximal post-baseline grade 0, subjects (%)” value (5-day, N = 84) was 71 (85%), the “Erosion/Ulceration maximal post-baseline grade 1, subjects (%)” value (5-day, N = 84) was 12 (14%) and the “Erosion/Ulceration maximal post-baseline grade 2, subjects (%)” value (5-day, N = 84) was 1 (1%). For the same compound, the “Erosion/Ulceration maximal post-baseline grade 3, subjects (%)” value (5-day, N = 84) was 0 (0%), the “Erosion/Ulceration maximal post-baseline grade 4, subjects (%)” value (5-day, N = 84) was 0 (0%) and the “Erythema maximal post-baseline grade 0, subjects (%)” value (5-day, N = 84) was 15 (18%). For the same compound, the “Erythema maximal post-baseline grade 1, subjects (%)” value (5-day, N = 84) was 16 (19%), the “Erythema maximal post-baseline grade 2, subjects (%)” value (5-day, N = 84) was 35 (42%) and the “Erythema maximal post-baseline grade 3, subjects (%)” value (5-day, N = 84) was 17 (20%). The “Erythema maximal post-baseline grade 4, subjects (%)” value (5-day, N = 84) was 1 (1%), the “Flaking/Scaling maximal post-baseline grade 0, subjects (%)” value (5-day, N = 84) was 33 (39%) and the “Flaking/Scaling maximal post-baseline grade 1, subjects (%)” value (5-day, N = 84) was 10 (12%). For the same compound, the “Flaking/Scaling maximal post-baseline grade 2, subjects (%)” value (5-day, N = 84) was 24 (29%), the “Flaking/Scaling maximal post-baseline grade 3, subjects (%)” value (5-day, N = 84) was 16 (19%) and the “Flaking/Scaling maximal post-baseline grade 4, subjects (%)” value (5-day, N = 84) was 1 (1%). For the same compound, the “Swelling maximal post-baseline grade 0, subjects (%)” value (5-day, N = 84) was 66 (79%), the “Swelling maximal post-baseline grade 1, subjects (%)” value (5-day, N = 84) was 16 (19%) and the “Swelling maximal post-baseline grade 2, subjects (%)” value (5-day, N = 84) was 1 (1%). For the same compound, the “Swelling maximal post-baseline grade 3, subjects (%)” value (5-day, N = 84) was 1 (1%), the “Swelling maximal post-baseline grade 4, subjects (%)” value (5-day, N = 84) was 0 (0%) and the “Vesiculation/Pustulation maximal post-baseline grade 0, subjects (%)” value (5-day, N = 84) was 80 (95%). For the same compound, the “Vesiculation/Pustulation maximal post-baseline grade 1, subjects (%)” value (5-day, N = 84) was 4 (5%), the “Vesiculation/Pustulation maximal post-baseline grade 2, subjects (%)” value (5-day, N = 84) was 0 (0%) and the “Vesiculation/Pustulation maximal post-baseline grade 3, subjects (%)” value (5-day, N = 84) was 0 (0%). For the same compound, the “Vesiculation/Pustulation maximal post-baseline grade 4, subjects (%)” value (5-day, N = 84) was 0 (0%), the “Crusting maximal post-baseline grade 0, subjects (%)” value (5-day, interim N = 67) was 41 (61%) and the “Crusting maximal post-baseline grade 1, subjects (%)” value (5-day, interim N = 67) was 20 (30%). The “Crusting maximal post-baseline grade 2, subjects (%)” value (5-day, interim N = 67) was 6 (9%), the “Crusting maximal post-baseline grade 3, subjects (%)” value (5-day, interim N = 67) was 0 (0%) and the “Crusting maximal post-baseline grade 4, subjects (%)” value (5-day, interim N = 67) was 0 (0%). The “Erosion/Ulceration maximal post-baseline grade 0, subjects (%)” value (5-day, interim N = 67) was 57 (85%), the “Erosion/Ulceration maximal post-baseline grade 1, subjects (%)” value (5-day, interim N = 67) was 9 (13%) and the “Erosion/Ulceration maximal post-baseline grade 2, subjects (%)” value (5-day, interim N = 67) was 1 (1%). For the same compound, the “Erosion/Ulceration maximal post-baseline grade 3, subjects (%)” value (5-day, interim N = 67) was 0 (0%), the “Erosion/Ulceration maximal post-baseline grade 4, subjects (%)” value (5-day, interim N = 67) was 0 (0%) and the “Erythema maximal post-baseline grade 0, subjects (%)” value (5-day, interim N = 67) was 7 (10%). The “Erythema maximal post-baseline grade 1, subjects (%)” value (5-day, interim N = 67) was 16 (24%), the “Erythema maximal post-baseline grade 2, subjects (%)” value (5-day, interim N = 67) was 32 (48%) and the “Erythema maximal post-baseline grade 3, subjects (%)” value (5-day, interim N = 67) was 12 (18%). For the same compound, the “Erythema maximal post-baseline grade 4, subjects (%)” value (5-day, interim N = 67) was 0 (0%), the “Flaking/Scaling maximal post-baseline grade 0, subjects (%)” value (5-day, interim N = 67) was 20 (30%) and the “Flaking/Scaling maximal post-baseline grade 1, subjects (%)” value (5-day, interim N = 67) was 14 (21%). The “Flaking/Scaling maximal post-baseline grade 2, subjects (%)” value (5-day, interim N = 67) was 20 (30%), the “Flaking/Scaling maximal post-baseline grade 3, subjects (%)” value (5-day, interim N = 67) was 13 (19%) and the “Flaking/Scaling maximal post-baseline grade 4, subjects (%)” value (5-day, interim N = 67) was 0 (0%). For the same compound, the “Swelling maximal post-baseline grade 0, subjects (%)” value (5-day, interim N = 67) was 53 (79%), the “Swelling maximal post-baseline grade 1, subjects (%)” value (5-day, interim N = 67) was 12 (18%) and the “Swelling maximal post-baseline grade 2, subjects (%)” value (5-day, interim N = 67) was 1 (1%). The “Swelling maximal post-baseline grade 3, subjects (%)” value (5-day, interim N = 67) was 1 (1%), the “Swelling maximal post-baseline grade 4, subjects (%)” value (5-day, interim N = 67) was 0 (0%) and the “Vesiculation/Pustulation maximal post-baseline grade 0, subjects (%)” value (5-day, interim N = 67) was 64 (96%). The “Vesiculation/Pustulation maximal post-baseline grade 1, subjects (%)” value (5-day, interim N = 67) was 3 (4%), the “Vesiculation/Pustulation maximal post-baseline grade 2, subjects (%)” value (5-day, interim N = 67) was 0 (0%) and the “Vesiculation/Pustulation maximal post-baseline grade 3, subjects (%)” value (5-day, interim N = 67) was 0 (0%). For the same compound, the “Vesiculation/Pustulation maximal post-baseline grade 4, subjects (%)” value (5-day, interim N = 67) was 0 (0%), the “Day from which LSRs were generally observable” value (Cohort 1 (5-day)) was 3 days and the Subjects with erosion/ulceration (Cohort 1 (5-day), 67 subjects with day 57 visit) was 9.
